Laboratory results published in publication PMC8213057, “Targeting ALK2: An Open Science Approach to Developing Therapeutics for the Treatment of Diffuse Intrinsic Pontine Glioma” (Journal of Medicinal Chemistry, 2020).

What was measured:
TYRO3/SKY = target: T1, TYRO3/SKY (Homo sapiens, UniProt Q06418); conditions: 1 μM; Run 1, Run 2
T1 sequence (Q06418 41-890): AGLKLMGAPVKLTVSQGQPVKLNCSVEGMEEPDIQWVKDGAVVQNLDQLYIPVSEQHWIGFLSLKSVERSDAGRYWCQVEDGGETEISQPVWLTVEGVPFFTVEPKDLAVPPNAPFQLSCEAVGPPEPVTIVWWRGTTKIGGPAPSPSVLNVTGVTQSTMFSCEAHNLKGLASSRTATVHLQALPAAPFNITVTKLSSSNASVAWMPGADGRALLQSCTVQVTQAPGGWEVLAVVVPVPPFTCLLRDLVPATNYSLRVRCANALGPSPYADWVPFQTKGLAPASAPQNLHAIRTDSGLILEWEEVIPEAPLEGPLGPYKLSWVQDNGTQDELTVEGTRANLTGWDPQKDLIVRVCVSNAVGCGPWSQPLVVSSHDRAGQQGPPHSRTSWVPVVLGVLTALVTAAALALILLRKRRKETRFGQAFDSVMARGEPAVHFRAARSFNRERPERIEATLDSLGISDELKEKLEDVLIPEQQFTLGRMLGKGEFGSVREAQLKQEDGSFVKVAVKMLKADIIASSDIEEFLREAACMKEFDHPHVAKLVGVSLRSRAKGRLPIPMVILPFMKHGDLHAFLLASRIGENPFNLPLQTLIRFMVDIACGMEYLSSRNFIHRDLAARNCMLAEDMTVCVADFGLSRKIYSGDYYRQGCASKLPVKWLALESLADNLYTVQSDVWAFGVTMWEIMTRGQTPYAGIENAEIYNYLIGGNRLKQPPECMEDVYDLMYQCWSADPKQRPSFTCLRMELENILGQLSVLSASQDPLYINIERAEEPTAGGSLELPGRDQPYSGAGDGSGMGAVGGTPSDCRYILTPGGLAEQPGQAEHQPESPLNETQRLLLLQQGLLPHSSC

ALK2/ACVR1 = target: T2, ALK2/ACVR1 (Homo sapiens, UniProt Q04771); type: biochemical; conditions: biochemical ALK5 IC50 / ALK2 IC50
T2 construct: purchased Reaction Biology Corporation
T2 sequence (Q04771 21-509): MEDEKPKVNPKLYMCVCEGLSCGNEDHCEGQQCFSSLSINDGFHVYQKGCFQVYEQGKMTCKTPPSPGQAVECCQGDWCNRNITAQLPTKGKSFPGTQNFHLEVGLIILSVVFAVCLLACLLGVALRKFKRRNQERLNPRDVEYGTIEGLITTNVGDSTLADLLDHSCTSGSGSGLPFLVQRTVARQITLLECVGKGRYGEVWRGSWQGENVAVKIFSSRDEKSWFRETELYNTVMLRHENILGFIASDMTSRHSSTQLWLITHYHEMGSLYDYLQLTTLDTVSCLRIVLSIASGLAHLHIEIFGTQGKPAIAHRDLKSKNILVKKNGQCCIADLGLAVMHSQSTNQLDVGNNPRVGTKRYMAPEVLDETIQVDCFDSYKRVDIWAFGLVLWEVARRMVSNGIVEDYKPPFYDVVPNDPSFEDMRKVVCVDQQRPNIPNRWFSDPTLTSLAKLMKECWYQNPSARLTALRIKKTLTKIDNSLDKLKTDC

DDR1 = target: T3, DDR1 (Homo sapiens, UniProt Q08345); assay: 375-member kinase panel; type: biochemical; conditions: Run 1, Run 2
T3 construct: purchased Reaction Biology Corporation
T3 sequence (Q08345 19-913): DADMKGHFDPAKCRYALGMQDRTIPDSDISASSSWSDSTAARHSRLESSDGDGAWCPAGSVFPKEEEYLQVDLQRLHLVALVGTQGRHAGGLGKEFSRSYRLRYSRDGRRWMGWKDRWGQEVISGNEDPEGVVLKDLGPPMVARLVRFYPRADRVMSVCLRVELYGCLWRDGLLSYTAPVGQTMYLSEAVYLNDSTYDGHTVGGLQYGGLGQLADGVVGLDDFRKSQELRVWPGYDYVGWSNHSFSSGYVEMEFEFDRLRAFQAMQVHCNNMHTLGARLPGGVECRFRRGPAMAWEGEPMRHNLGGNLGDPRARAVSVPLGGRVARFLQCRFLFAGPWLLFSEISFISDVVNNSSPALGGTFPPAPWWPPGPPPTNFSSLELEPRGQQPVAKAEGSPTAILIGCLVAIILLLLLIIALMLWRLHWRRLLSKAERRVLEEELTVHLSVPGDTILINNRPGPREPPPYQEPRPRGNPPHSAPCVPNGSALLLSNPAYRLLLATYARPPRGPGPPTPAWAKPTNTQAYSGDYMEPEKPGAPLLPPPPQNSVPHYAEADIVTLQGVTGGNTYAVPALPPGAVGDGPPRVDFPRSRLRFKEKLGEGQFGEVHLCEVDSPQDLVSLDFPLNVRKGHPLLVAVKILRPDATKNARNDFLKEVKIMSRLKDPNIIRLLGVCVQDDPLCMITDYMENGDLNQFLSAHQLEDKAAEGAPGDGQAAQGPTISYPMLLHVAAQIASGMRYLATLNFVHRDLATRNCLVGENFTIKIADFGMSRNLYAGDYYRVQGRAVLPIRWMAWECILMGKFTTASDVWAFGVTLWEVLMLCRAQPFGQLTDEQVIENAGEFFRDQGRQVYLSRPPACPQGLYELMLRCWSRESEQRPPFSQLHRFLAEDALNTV

BLK = BLK (Homo sapiens, UniProt P51451); conditions: 1 μM; Run 1, Run 2
Sequence of BLK (P51451 whole entry): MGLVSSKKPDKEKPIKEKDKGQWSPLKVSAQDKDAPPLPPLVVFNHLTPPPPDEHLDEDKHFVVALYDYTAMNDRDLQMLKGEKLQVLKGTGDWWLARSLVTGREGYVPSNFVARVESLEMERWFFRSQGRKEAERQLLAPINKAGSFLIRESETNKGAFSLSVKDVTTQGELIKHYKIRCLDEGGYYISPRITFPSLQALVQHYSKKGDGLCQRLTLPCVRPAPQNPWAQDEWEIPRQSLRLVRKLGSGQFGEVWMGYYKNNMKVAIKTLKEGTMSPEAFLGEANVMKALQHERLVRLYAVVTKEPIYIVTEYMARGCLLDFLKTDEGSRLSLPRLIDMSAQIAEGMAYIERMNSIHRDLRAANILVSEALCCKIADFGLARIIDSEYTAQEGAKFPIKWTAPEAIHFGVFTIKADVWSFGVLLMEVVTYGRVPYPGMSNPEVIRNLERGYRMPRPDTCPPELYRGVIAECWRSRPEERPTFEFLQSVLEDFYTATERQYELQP

[1] = 10 mg/kg PO, relative to 8b
in vivo = conditions: female, CB17 SCID, mouse, po, 10 mg/kg
in vitro = conditions: human, Caco-2, pH 7.4
MNK2 = MNK2 (Homo sapiens, UniProt Q9HBH9); conditions: 1 μM; Run 1, Run 2
Sequence of MNK2 (Q9HBH9 whole entry): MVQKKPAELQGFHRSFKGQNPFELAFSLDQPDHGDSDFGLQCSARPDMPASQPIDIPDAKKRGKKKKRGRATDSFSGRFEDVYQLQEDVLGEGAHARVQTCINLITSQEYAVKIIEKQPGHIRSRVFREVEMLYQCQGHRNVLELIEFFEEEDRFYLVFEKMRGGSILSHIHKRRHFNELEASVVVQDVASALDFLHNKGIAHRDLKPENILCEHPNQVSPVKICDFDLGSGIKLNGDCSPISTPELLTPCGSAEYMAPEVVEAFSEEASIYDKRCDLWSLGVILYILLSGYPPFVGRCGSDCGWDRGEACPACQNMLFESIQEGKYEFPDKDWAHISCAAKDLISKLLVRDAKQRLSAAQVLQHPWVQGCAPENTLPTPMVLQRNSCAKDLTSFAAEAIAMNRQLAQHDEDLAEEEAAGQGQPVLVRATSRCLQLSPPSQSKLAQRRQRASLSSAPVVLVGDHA

CYP2B6 = CYP2B6 (Homo sapiens, UniProt P20813); conditions: read-out: CYP2B6 IC50; human liver microsomes
Sequence of CYP2B6 (P20813 whole entry): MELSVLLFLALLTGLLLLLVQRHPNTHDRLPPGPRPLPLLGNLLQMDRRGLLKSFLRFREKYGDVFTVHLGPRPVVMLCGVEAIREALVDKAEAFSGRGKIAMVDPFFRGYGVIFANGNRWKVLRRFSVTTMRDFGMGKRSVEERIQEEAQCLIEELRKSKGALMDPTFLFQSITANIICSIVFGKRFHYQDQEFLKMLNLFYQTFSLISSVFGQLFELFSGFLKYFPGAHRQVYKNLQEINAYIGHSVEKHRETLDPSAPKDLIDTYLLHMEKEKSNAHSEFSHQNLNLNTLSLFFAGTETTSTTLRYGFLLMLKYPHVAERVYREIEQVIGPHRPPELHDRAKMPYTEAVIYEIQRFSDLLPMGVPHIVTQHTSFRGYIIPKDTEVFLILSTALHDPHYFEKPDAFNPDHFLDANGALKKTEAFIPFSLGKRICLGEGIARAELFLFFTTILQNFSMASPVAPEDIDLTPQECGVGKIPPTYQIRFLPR

**Q.** Which “% enzyme activity” value (TYRO3/SKY) does the source give for `COc1cc(-c2cncc(-c3ccc(N4CCN(C)CC4)cc3)c2C)cc(F)c1C(N)=O` [Compound 26a, 2-Fluoro-6-methoxy-4-(4-methyl-5-(4-(4-methylpiperazin-1-yl)phenyl)pyridin-3-yl)benzamide] here?
**A.** 83.48%

**Q.** And the “Fold Selectivity (ALK5/ALK2)” value (ALK2/ACVR1)?
**A.** 350

**Q.** What about the “% enzyme activity” value (DDR1; 1 μM) of the same compound?
**A.** 31.23%

**Q.** And the remaining activity at 1 µM (DDR1; read-out: % enzyme activity, 1 μM)?
**A.** 32.1%

**Q.** What about the “% enzyme activity” value (BLK) of the same compound?
**A.** 95.94%

**Q.** And the “fold increase in AUCinf” value [1]?
**A.** > 13 fold

**Q.** And the “fold increase in Cmax” value [1]?
**A.** greater than 17 fold

**Q.** What about the half-life at 24 h (in vivo) of the same compound?
**A.** 154 min

**Q.** And the efflux ratio (in vitro)?
**A.** < 3

**Q.** Which results are given for `COc1cc(-c2cncc(-c3ccc(N4C[C@@H](C)N(C)[C@@H](C)C4)cc3)c2C)cc(F)c1C(N)=O` [Compound 26c, 2-Fluoro-6-methoxy-4-(4-methyl-5-(4-((3R,5S)-3,4,5-trimethylpiperazin-1-yl)phenyl)pyridin-3-yl)benzamide]?
**A.** % enzyme activity (TYRO3/SKY): 93.66%; IC50 (DLA ALK5): > 5 µM; % enzyme activity (MNK2): 68.28%; IC50 (NanoBRET ALK2): 100 nM; IC50 (CYP2B6): > 50 µM
